“And” between values parts separate entries of the source, which are not always exact repeats. Equal entries are not always repeated. “Also recorded” adds a separate entry of the source.
What was measured:
[1] = system: C. butyricum; format: cell-based, Clostridium butyricum
[2] = system: E. coli; format: cell-based
[3] = system: Citrobacter; format: cell-based
[4] = system: B. fragilis; format: cell-based, Bacteroides fragilis
[5] = system: C. perfringens; format: cell-based, Clostridium perfringens
[6] = system: C. perfringens; format: cell-based, Clostridium perfringens; remark: listed apart in the source
[7] = system: Bacteroides fragilis; format: cell-based
[8] = system: Citrobacter; format: cell-based; remark: listed apart in the source
[9] = system: E. coli; format: cell-based; remark: listed apart in the source
[10] = system: C. butyricum; format: cell-based, Clostridium butyricum; remark: listed apart in the source
[11] = system: B. longum; format: cell-based; design: key: Ø: without halo; + → +++: intensity of the halo; + → +++: intensity of the halo; + → +++: intensity of the halo; ↓: reduction in the microorganisms (here by 90%)
[12] = system: Bifidobacterium bifidum; format: cell-based; design: key to intensity of the halo / reduction in the microorganisms: Ø: without halo; + → +++: intensity of the halo; + → +++: intensity of the halo; + → +++: intensity of the halo; ↓: reduction in the microorganisms (here by 90%)
[13] = system: B. dentium; format: cell-based; design: key: Ø: without halo; + → +++: intensity of the halo; + → +++: intensity of the halo; + → +++: intensity of the halo; ↓: reduction in the microorganisms (here by 90%)

Row | Molecule | colors due to the hydrolysis of the substrate [6] | relative intensity of the color of the colonies (3 to 0) [6] | color of the colonies [7] | color of the colonies [8] | relative intensity of the color of the colonies (3 to 0) [8] | color of the colonies [9] | relative intensity of the color of the colonies (3 to 0) [9] | color of the colonies [6] | relative intensity of the color of the colonies (3 to 0) [7] | also measured
1 | N[C@@H]1CON=C1O [cycloserine] | – | – | – | – | – | – | – | – | – | growth in the presence of antibiotic [1]: grow; growth in the presence of antibiotic [2]: grow; growth in the presence of antibiotic [3]: grow; growth in the presence of antibiotic [4]: grow; growth in the presence of antibiotic [5]: grow
2 | O=P(O)(O)Oc1c[nH]c2cc(Cl)c(Br)cc12 [Mag-Phos] | difficult to see | 3 and 2 | cream-pink; also recorded: cream-colored with a brownish halo | cream-colored (darker center); also recorded: pink (pink agar) | 2 and 3 | cream-colored (darker center); also recorded: pink (pink agar) | 2 and 3 | – | – | –
3 | O=C(O)[C@H]1O[C@@H](Oc2c[nH]c3ccc(Br)c(Cl)c23)[C@H](O)[C@@H](O)[C@@H]1O [X-glucu] | difficult to see | – | – | – | – | – | – | – | – | –
4 | OC[C@H]1O[C@@H](Oc2c[nH]c3ccc(Br)c(Cl)c23)[C@H](O)[C@@H](O)[C@@H]1O [X-glu] | difficult to see | – | – | – | – | – | – | – | – | –
5 | O=P(O)(O)Oc1c[nH]c2ccc(Br)c(Cl)c12 [X-Phos] | – | 2 | cream-colored when they are isolated, blue in group; also recorded: deep cream-colored, light brown | – | 3 | very light greenish cream-colored; also recorded: darker | 2 and 3 | greenish cream-colored with a slight blue halo | 1 and 2 | color of the colonies [10]: cream-colored; also recorded: cream-colored with a very light halo near the colony and then blue at the periphery; growth of the colonies [10]: did not grow; relative intensity of the color of the colonies (3 to 0) [10]: 2
6 | OC[C@H]1O[C@H](Oc2c[nH]c3cc(Cl)c(Br)cc23)[C@H](O)[C@@H](O)[C@H]1O [Mag-α-Gal] | – | – | – | cream-colored; also recorded: darker or light cream-colored | – | darker or light cream-colored; also recorded: cream-colored | – | cream-colored and pink | – | color of the colonies [10]: cream-colored; also recorded: darker or light cream-colored
7 | OC[C@@H]1O[C@@H](Oc2c[nH]c3cc(Cl)c(Br)cc23)[C@@H](O)[C@@H](O)[C@H]1O [Mag-Gal] | – | 3 | – | cream-colored and pink | 1 and 2 | – | 2 | – | 1 | growth of the colonies [10]: did not grow; relative intensity of the color of the colonies (3 to 0) [10]: 2
8 | CC(=O)N[C@H]1[C@H](Oc2c[nH]c3ccc(Br)c(Cl)c23)O[C@H](CO)[C@@H](O)[C@@H]1O [X-acglmn] | – | – | cream-colored | cream-colored | – | cream-colored | – | cream-colored; also recorded: very slightly greenish cream-colored | – | –
9 | 5-bromo-4-chloro-3-indolyl-β-D-galactopyranoside [X-Gal] | difficult to see | 3 | – | cream-colored | – | all blue | 3 | – | 2 | halos around the colonies [6]: blue-gray halos
10 | ammoniacal iron citrate [AIC] | – | – | – | – | – | – | – | – | – | intensity of the halo [11]: + and ++; bacterial count [12]: reduction in the number of microorganisms; halo around the colonies [12]: more intense; also recorded: became visible; intensity of the halo [12]: + and ++ and +++↓; reduction in the microorganisms [12]: +++↓; intensity of the halo [13]: + and ++
